Assay results reported in patent publication US8133729B2, “Biomimetic urothelium” (The University of York, priority 2002, dated 2012).
Entries after “also recorded” stand apart in the source; their conditions may differ.

Experiments:
[1] = target: T1, amiloride-sensitive sodium channels (Homo sapiens, UniProt P37088+P51168+P51170); experiment: Polarised sodium ion channel distribution: short circuit current and transepithelial potential difference on amiloride exposure; format: cell-based
T1 construct: The exposure of the apical surface of the urothelial tissue to amiloride reduced both the voltage and the current; endogenous in cells; host or cells: in vitro cultured, differentiated human urothelial cell sheet
Method: (§1) Polarised Sodium Ion Channel Distribution. In order to determine the presence and correct spatial location of sodium ion channels, short circuit current and transepithelial potential difference were measured under voltage and current clamped conditions respectively.

Na^+—K^+ ATPase = experiment: Short circuit current and transepithelial potential difference on ouabain exposure; format: cell-based, human
Method: as §1

[2] = exposure of basal surface of in vitro cultivated urothelium
[3] = exposure of apical surface of in vitro cultivated urothelium

T1 sequence (P51170 whole entry): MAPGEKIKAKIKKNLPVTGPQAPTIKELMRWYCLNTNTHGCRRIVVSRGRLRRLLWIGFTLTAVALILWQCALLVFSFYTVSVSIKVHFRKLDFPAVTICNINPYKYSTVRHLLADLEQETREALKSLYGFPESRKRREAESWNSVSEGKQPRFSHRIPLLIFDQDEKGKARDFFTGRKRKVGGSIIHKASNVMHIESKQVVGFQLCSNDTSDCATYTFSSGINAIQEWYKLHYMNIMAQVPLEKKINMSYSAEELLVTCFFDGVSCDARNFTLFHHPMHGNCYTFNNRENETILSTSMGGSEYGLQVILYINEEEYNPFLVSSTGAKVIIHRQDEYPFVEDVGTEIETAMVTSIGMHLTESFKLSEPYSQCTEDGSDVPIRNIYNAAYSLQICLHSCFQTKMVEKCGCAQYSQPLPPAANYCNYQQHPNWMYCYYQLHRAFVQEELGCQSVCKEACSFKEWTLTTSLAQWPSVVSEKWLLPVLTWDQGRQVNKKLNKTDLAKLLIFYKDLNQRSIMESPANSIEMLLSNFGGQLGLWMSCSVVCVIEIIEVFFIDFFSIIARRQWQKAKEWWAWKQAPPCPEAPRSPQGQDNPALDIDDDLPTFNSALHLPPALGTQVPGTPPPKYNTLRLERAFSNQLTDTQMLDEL
T1 sequence (P37088 whole entry): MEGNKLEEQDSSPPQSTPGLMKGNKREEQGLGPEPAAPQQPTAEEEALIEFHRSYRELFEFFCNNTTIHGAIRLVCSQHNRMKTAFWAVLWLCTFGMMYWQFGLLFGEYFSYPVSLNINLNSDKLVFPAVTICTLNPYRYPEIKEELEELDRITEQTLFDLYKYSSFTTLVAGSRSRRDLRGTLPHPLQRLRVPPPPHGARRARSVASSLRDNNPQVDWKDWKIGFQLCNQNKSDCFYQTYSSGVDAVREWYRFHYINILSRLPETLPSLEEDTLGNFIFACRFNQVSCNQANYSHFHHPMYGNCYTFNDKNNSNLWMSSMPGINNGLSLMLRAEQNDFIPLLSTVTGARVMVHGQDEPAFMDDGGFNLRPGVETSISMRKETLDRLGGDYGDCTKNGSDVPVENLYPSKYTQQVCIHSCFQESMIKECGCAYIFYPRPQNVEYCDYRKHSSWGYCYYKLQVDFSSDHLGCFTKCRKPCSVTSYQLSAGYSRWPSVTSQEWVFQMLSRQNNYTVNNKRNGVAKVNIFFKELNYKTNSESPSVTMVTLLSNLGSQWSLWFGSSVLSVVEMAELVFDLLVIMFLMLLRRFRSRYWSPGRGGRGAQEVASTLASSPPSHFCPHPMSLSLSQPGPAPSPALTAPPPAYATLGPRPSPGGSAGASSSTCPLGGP
T1 sequence (P51168 whole entry): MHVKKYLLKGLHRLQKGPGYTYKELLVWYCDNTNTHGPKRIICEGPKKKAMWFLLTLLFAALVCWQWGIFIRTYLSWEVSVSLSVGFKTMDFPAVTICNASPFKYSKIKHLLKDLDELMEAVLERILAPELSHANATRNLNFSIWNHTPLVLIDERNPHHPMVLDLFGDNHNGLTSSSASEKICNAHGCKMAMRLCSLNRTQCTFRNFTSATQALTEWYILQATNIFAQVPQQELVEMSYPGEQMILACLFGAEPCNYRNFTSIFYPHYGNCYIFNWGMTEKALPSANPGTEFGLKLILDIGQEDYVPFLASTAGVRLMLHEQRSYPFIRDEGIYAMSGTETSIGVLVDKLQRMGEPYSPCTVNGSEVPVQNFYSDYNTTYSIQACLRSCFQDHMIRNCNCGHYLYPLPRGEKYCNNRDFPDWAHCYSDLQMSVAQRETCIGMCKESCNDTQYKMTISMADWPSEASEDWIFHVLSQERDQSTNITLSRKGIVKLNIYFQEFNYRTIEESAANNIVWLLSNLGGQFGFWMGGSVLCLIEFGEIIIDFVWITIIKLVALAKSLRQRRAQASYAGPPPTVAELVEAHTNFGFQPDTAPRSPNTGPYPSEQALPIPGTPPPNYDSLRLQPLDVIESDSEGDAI

Compound | effect on transepithelial potential difference (voltage) ([1]; exposure of apical surface of in vitro cultivated urothelium, current clamped) | effect on short circuit current ([1]; exposure of apical surface of in vitro cultivated urothelium, voltage clamped) | effect on short circuit current [1, 2] | effect on transepithelial potential difference (voltage) [1, 2] | effect on short circuit current (Na^+—K^+ ATPase; [3]) | effect on transepithelial potential difference (voltage) (Na^+—K^+ ATPase; [3]) | effect on short circuit current (Na^+—K^+ ATPase; [2]) | effect on transepithelial potential difference (voltage) (Na^+—K^+ ATPase; [2])
N=C(N)NC(=O)c1nc(Cl)c(N)nc1N [amiloride] | reduced both the voltage and the current in a dose-dependent manner | dose-responsive decrease in short circuit current; also recorded: reduced both the voltage and the current in a dose-dependent manner | did not affect either the voltage or the current | did not affect either the voltage or the current |  |  |  | 
C[C@@H]1O[C@@H](O[C@H]2C[C@@H](O)[C@]3(CO)[C@H]4[C@H](O)C[C@]5(C)[C@@H](C6=CC(=O)OC6)CC[C@]5(O)[C@@H]4CC[C@]3(O)C2)[C@H](O)[C@H](O)[C@H]1O [ouabain] |  |  |  |  | only a minor effect on the measured voltage and current | only a minor effect on the measured voltage and current | marked reduction of both voltage and current | marked reduction of both voltage and current
